These results are taken from patent US20220331274A1, “METHODS OF TREATING CANCER” (Inspirna, Inc., priority 2019, published 2022).

For data set [1] the following is noted: cited from earlier work.
A further data set relates to Xenograft A549. As to the kind of experiment: Example 2: Xenograft A549 mice, tumor volume. It counts as in vivo. As to conditions: Group 02: 2 mg/kg cisplatin, corn oil. As for the experimental part: Protocol: Five groups of Xenograft A549 mice were treated and tumor volume tracked for twenty-two days. Group 01 was administered 0.9% Saline, 0 mg/kg cisplatin, Corn Oil, and 0 mg/kg 2-[3-[(3R)-3-[[2-chloro-3-(trifluoromethyl)phenyl]methyl-(2,2-diphenylethyl)amino]butoxy]phenyl]acetic acid; Group 02 was administered 2 mg/kg Cisplatin, Corn Oil, and 0 mg/kg 2-[3-[(3R)-3-[[2-chloro-3-(trifluoromethyl)phenyl]methyl-(2,2-diphenylethyl)amino]butoxy]phenyl]acetic acid; Group 03 was administered 0.9% Saline, 0 mg/kg cisplatin, and 50 mg/kg 2-[3-[(3R)-3-[[2-chloro-3-(trifluoromethyl)phenyl]methyl-(2,2-diphenylethyl)amino]butoxy]phenyl]acetic acid; Group 04 was administered 2 mg/kg cisplatin and 50 mg/kg 2-[3-[(3R)-3-[[2-chloro-3-(trifluoromethyl)phenyl]methyl-(2,2-diphenylethyl)amino]butoxy]phenyl]acetic acid twice per day daily for the entire treatment period; and Group 05 was administered 2 mg/kg cisplatin and 50 mg/kg 2-[3-[(3R)-3-[[2-chloro-3-(trifluoromethyl)phenyl]methyl-(2,2-diphenylethyl)amino]butoxy]phenyl]acetic acid twice per day for five continuous days followed by two days without for the entire treatment period.

For data set [2] the following is noted: cited from earlier work. The source holds these as a separate data set.
For data set [3] the following is noted: cited from earlier work. This is another data set of the same source.
Data set [4] deals with BRAF wild-type human melanoma xenograft. Briefly: BRAF wild-type human melanoma xenograft model. The format is in vivo. As to conditions: 100 mg/kg in combination with dacarbazine.
A further data set concerns mouse melanoma. As to the kind of experiment: syngeneic mouse melanoma model. It counts as in vivo.

As for `CC(=O)O[C@@]12CO[C@@H]1C[C@H](O)[C@@]1(C)C(=O)[C@H](O)C3=C(C)[C@@H](OC(=O)[C@H](O)[C@@H](NC(=O)OC(C)(C)C)c4ccccc4)C[C@@](O)([C@@H](OC(=O)c4ccccc4)[C@H]21)C3(C)C` [docetaxel, (2R,3S)—N-carboxy-3-phenylisoserine,N-tert-butyl ester, 13-ester with 5b-20-epoxy-1,2a,4,7b, 10b, 13a-hexahydroxytax-11-en-9-one 4-acetate 2-benzoate, trihydrate], the hepatotoxicity result in data set [1] (treatment with the partner drug) is “hepatotoxicity has been observed”.

As to “nivolumab: fully human immunoglobulin (Ig) G4 monoclonal antibody directed against programmed death-1 (PD-1)”, in data set [1] (in vivo), the “hyperlipidemia in treated subjects” value is recorded as “has also been reported” and the immune-mediated hepatitis entry was “immune-mediated hepatitis has been observed”.

As for `N.N.[Cl][Pt][Cl]` [cisplatin, reference compound], the mean tumor volume is given as 86.05 in the data set on Xenograft A549 (day 0, in mm³ (unit assumed)); 116.20 in the data set with Xenograft A549 (day 3); 196.48 in the data set with Xenograft A549 (day 6); 276.41 in the data set on Xenograft A549 (day 9, in mm³ (unit assumed)); 450.58 in the data set with Xenograft A549 (day 12, in mm³ (unit assumed)); 598.84 in the data set on Xenograft A549 (day 15, in mm³ (unit assumed)). The mean tumor volume in the data set on Xenograft A549 (day 19) came to 1239.53; in the data set on Xenograft A549 (day 22), 1521.86.

`N.N.O=C([O-])C1(C(=O)[O-])CCC1.[Pt+2]` [Carboplatin, platinum, diammine[1,1-cyclobutanedicarboxylato(2-)-O,O′]-, (SP-4-2)]: in data set [2] (ethanol, acetone, dimethylacetamide), the “solubility in ethanol, acetone, and dimethylacetamide” value was “virtually insoluble”. Moreover, the solubility in water result in data set [2] (water) was “approximately 14 mg/mL”. Also, the “pH of a 1% solution” value in data set [3] is 5-7.

`Cl.O=C(O)Cc1cccc(OCCCN(Cc2cccc(C(F)(F)F)c2Cl)CC(c2ccccc2)c2ccccc2)c1` [GW3965, 3-[3-[N-(2-Chloro-3-trifluoromethylbenzyl)-(2,2-diphenylethyl)amino]propyloxy]phenylacetic acid hydrochloride, reference compound]: the anti-tumor efficacy result in data set [4] is recorded as “Additive anti-tumor efficacy”; with mouse melanoma (100 mg/kg in combination with dacarbazine, syngeneic melanoma animal model) it was “Additive anti-tumor efficacy”. The tumor suppressive efficacy result in the data set with mouse melanoma (100 mg/kg in combination with anti-CTLA-4) was “additive tumor suppressive efficacy”.

In the case of “ipilimumab: recombinant human IgG1 kappa monoclonal antibody that binds to CTLA-4”, in data set [1] (in vivo), the immune-mediated hepatitis result was “immune-mediated hepatitis has been observed”.
